US8877748B2, “Heterocyclic fused anthraquinone derivatives, manufacturing method and pharmaceutical composition using thereof” (National Defense Medical Center, priority 2012, dated 2014)
Several values for one entry are separate records, joined by “and”; a condition that tells them apart may be missing. Identical values can stand only once. Like-named read-outs stand apart in the source and are kept apart here.

Tests used:
[1] = system: PC-3 prostate cancer cell line; experiment: SRB assay cell viability, PC-3 prostate cancer cell line; format: cell-based, human; conditions: Homo sapiens
[2] = system: CCRF-CEM; experiment: NCI screening platform one-dose single concentration screening, leukemia CCRF-CEM; format: cell-based, human; conditions: 10 μM
[3] = system: HL-60, TB; experiment: NCI one-dose screening, leukemia HL-60, TB; format: cell-based, human; conditions: 10 μM
[4] = system: MOLT-4; experiment: NCI one-dose screening, leukemia MOLT-4; format: cell-based, human; conditions: 10 μM
[5] = system: SR; experiment: NCI one-dose screening, leukemia SR; format: cell-based, human; conditions: 10 μM
[6] = system: PRMI-8226 cell line; experiment: NCI one-dose screening, leukemia PRMI-8226; format: cell-based, human; conditions: 10 μM
[7] = system: K562cell line; experiment: NCI one-dose screening, leukemia K562; format: cell-based, human; conditions: 10 μM
[8] = system: HOP-62; experiment: NCI one-dose screening, non-small cell lung cancer HOP-62; format: cell-based, human; conditions: 10 μM
[9] = system: HOP-92; experiment: NCI one-dose screening, non-small cell lung cancer HOP-92; format: cell-based, human; conditions: 10 μM
[10] = system: NCI-H226; experiment: NCI one-dose screening, non-small cell lung cancer NCI-H226; format: cell-based, human; conditions: 10 μM
[11] = system: NCI-H23; experiment: NCI one-dose screening, non-small cell lung cancer NCI-H23; format: cell-based, human; conditions: 10 μM
[12] = system: NCI-H322M; experiment: NCI one-dose screening, non-small cell lung cancer NCI-H322M; format: cell-based, human; conditions: 10 μM; Non-small cell lung cancer
[13] = system: NCI-H460; experiment: NCI one-dose screening, non-small cell lung cancer NCI-H460; format: cell-based, human; conditions: 10 μM
[14] = system: NCI-H522; experiment: NCI one-dose screening, non-small cell lung cancer NCI-H522; format: cell-based, human; conditions: 10 μM
[15] = system: A549/ATCC; experiment: NCI one-dose screening, non-small cell lung cancer A549/ATCC; format: cell-based, human; conditions: 10 μM
[16] = system: COLO 205; experiment: NCI one-dose screening, colon cancer COLO 205; format: cell-based, human; conditions: 10 μM
[17] = system: HCC-2998; experiment: NCI one-dose screening, colon cancer HCC-2998; format: cell-based, human; conditions: 10 μM
[18] = system: HCT-116; experiment: NCI one-dose screening, colon cancer HCT-116; format: cell-based, human; conditions: 10 μM
[19] = system: HCT-15; experiment: NCI one-dose screening, colon cancer HCT-15; format: cell-based, human; conditions: 10 μM
[20] = system: KM12; experiment: NCI one-dose screening, colon cancer KM12; format: cell-based, human; conditions: 10 μM
[21] = system: SF-268; experiment: NCI one-dose screening, CNS cancer SF-268; format: cell-based, human; conditions: 10 μM
[22] = system: SF-295; experiment: NCI one-dose screening, CNS cancer SF-295; format: cell-based, human; conditions: 10 μM
[23] = system: SF-539; experiment: NCI one-dose screening, CNS cancer SF-539; format: cell-based, human; conditions: 10 μM
[24] = system: SNB-19; experiment: NCI one-dose screening, CNS cancer SNB-19; format: cell-based, human; conditions: 10 μM
[25] = system: SNB-75; experiment: NCI one-dose screening, CNS cancer SNB-75; format: cell-based, human; conditions: 10 μM
[26] = system: U251; experiment: NCI one-dose screening, CNS cancer U251; format: cell-based, human; conditions: 10 μM
[27] = system: LOX IMVI; experiment: NCI one-dose screening, melanoma LOX IMVI; format: cell-based, human; conditions: 10 μM
[28] = system: MALME-3M; experiment: NCI one-dose screening, melanoma MALME-3M; format: cell-based, human; conditions: 10 μM
[29] = system: M14; experiment: NCI one-dose screening, melanoma M14; format: cell-based, human; conditions: 10 μM
[30] = system: UACC-62; experiment: NCI one-dose screening, melanoma UACC-62; format: cell-based, human; conditions: 10 μM
[31] = system: UACC-257; experiment: NCI one-dose screening, melanoma UACC-257; format: cell-based, human; conditions: 10 μM
[32] = system: SK-MEL-2; experiment: NCI one-dose screening, melanoma SK-MEL-2; format: cell-based, human; conditions: 10 μM
[33] = system: SK-MEL-28; experiment: NCI one-dose screening, melanoma SK-MEL-28; format: cell-based, human; conditions: 10 μM
[34] = system: SK-MEL-5; experiment: NCI one-dose screening, melanoma SK-MEL-5; format: cell-based, human; conditions: 10 μM
[35] = system: IGROV1; experiment: NCI one-dose screening, ovarian cancer IGROV1; format: cell-based, human; conditions: 10 μM
[36] = system: OVCAR-3; experiment: NCI one-dose screening, ovarian cancer OVCAR-3; format: cell-based, human; conditions: 10 μM
[37] = system: OVCAR-4; experiment: NCI one-dose screening, ovarian cancer OVCAR-4; format: cell-based, human; conditions: 10 μM
[38] = system: OVCAR-8; experiment: NCI one-dose screening, ovarian cancer OVCAR-8; format: cell-based, human; conditions: 10 μM
[39] = system: SK-OV-3; experiment: NCI one-dose screening, ovarian cancer SK-OV-3; format: cell-based, human; conditions: 10 μM
[40] = system: 786-O; experiment: NCI one-dose screening, renal cancer 786-O; format: cell-based, human; conditions: 10 μM
[41] = system: CAKI-1; experiment: NCI one-dose screening, renal cancer CAKI-1; format: cell-based, human; conditions: 10 μM
[42] = NCI one-dose screening, renal cancer A489; format: cell-based, human; conditions: 10 μM
[43] = system: SN12C; experiment: NCI one-dose screening, renal cancer SN12C; format: cell-based, human; conditions: 10 μM
[44] = system: TK-10; experiment: NCI one-dose screening, renal cancer TK-10; format: cell-based, human; conditions: 10 μM
[45] = system: UO-31; experiment: NCI one-dose screening, renal cancer UO-31; format: cell-based, human; conditions: 10 μM
[46] = system: RXF, 393; experiment: NCI one-dose screening, renal cancer RXF, 393; format: cell-based, human; conditions: 10 μM
[47] = system: DU145; experiment: NCI one-dose screening, prostate cancer DU145; format: cell-based, human; conditions: 10 μM
[48] = system: PC-3; experiment: NCI one-dose screening, prostate cancer PC-3; format: cell-based, human; conditions: 10 μM
[49] = system: MCF7; experiment: NCI one-dose screening, breast cancer MCF7; format: cell-based, human; conditions: 10 μM
[50] = system: HS 578-T; experiment: NCI one-dose screening, breast cancer HS 578-T; format: cell-based, human; conditions: 10 μM; Breast cancer
[51] = system: MDA-MB-231/ATCC; experiment: NCI one-dose screening, breast cancer MDA-MB-231/ATCC; format: cell-based, human; conditions: 10 μM
[52] = system: MDA-MB-468; experiment: NCI one-dose screening, breast cancer MDA-MB-468; format: cell-based, human; conditions: 10 μM
[53] = system: BT-549; experiment: NCI one-dose screening, breast cancer BT-549; format: cell-based, human; conditions: 10 μM
[54] = system: T-47D; experiment: NCI one-dose screening, breast cancer T-47D; format: cell-based, human; conditions: 10 μM
[55] = system: human tumor cell lines; experiment: NCI one-dose screening, Mean / Delta / Range of growth percent over all tested cell lines; format: cell-based; conditions: 10 μM

O=C1c2ccccc2C(=O)c2c1cc(Sc1ccccc1)c1nsnc21 [C19, 4-(phenylthio)anthra[2,1-c][1,2,5] thiadiazol-6,11-dione]
IC50 ([1]; PC-3 prostate cancer cell line, Table II prints no unit, μM printed, read-out: SRB assay: 50% inhibition of cancer cell proliferation of sample concentration (IC50) of PC-3 prostate cancer cell line): 28.6 µM
IC50 ([1]; PC-3 prostate cancer cells, read-out: IC50 in PC-3 prostate cancer cells (cell viability analysis)): > 15 µM
Growth Percent CCRF-CEM [2]: 15.74%
Growth Percent HL-60(TB) [3]: 83.94%
Growth Percent MOLT-4 [4]: 31.08%
Growth Percent SR [5]: 86.41%
Growth Percent RPMI-8226 [6]: 78.21%
Growth Percent K562 [7]: 52.03%
Growth Percent HOP-62 [8]: 97.77%
Growth Percent HOP-92 [9]: 110.22%
Growth Percent NCI-H226 [10]: 117.67% and 94.91%
Growth Percent NCI-H23 [11]: 101.59%
Growth Percent NCI-H322M [12]: 79.21%
Growth Percent NCI-H460 [13]: 100.74%
Growth Percent NCI-H522 [14]: 100.56%
Growth Percent A549/ATCC [15]: 105.68%
Growth Percent COLO 205 [16]: 117.53%
Growth Percent HCC-2998 [17]: 110.88%
Growth Percent HCT-116 [18]: 90.08%
Growth Percent HCT-15 [19]: 93.89%
Growth Percent KM12 [20]: 99.5%
Growth Percent SF-268 [21]: 102.24%
Growth Percent SF-295 [22]: 106.36%
Growth Percent SF-539 [23]: 106.54%
Growth Percent SNB-19 [24]: 108.79%
Growth Percent SNB-75 [25]: 96.12%
Growth Percent U251 [26]: 88.75%
Growth Percent LOX IMVI [27]: 42%
Growth Percent MALME-3M [28]: 106.43%
Growth Percent M14 [29]: 106.41%
Growth Percent UACC-62 [30]: 86.28%
Growth Percent UACC-257 [31]: 92.75%
Growth Percent SK-MEL-2 [32]: 112.49%
Growth Percent SK-MEL-28 [33]: 127.12%
Growth Percent SK-MEL-5 [34]: 85.68%
Growth Percent IGROV1 [35]: 84.4%
Growth Percent OVCAR-3 [36]: 96.67%
Growth Percent OVCAR-4 [37]: 57.83%
Growth Percent OVCAR-8 [38]: 82.3%
Growth Percent SK-OV-3 [39]: 105.6%
Growth Percent 786-0 [40]: 110.04%
Growth Percent CAKI-1 [41]: 89.04%
Growth Percent A498 [42]: 95.01%
Growth Percent SN12C [43]: 96.58%
Growth Percent TK-10 [44]: 143.47%
Growth Percent UO-31 [45]: 80.12%
Growth Percent RXF 393 [46]: 114.31%
Growth Percent DU145 [47]: 102.73%
Growth Percent PC-3 [48]: 87.32%
Growth Percent MCF7 [49]: 94.88%
Growth Percent HS 578T [50]: 95.89%
Growth Percent MDA-MB-231/ATCC [51]: 66.67%
Growth Percent MDA-MB-468 [52]: 87.29%
Growth Percent BT-549 [53]: 104.68%
Growth Percent T-47D [54]: 93.21%
Growth Percent Delta ([55]; delta over all cell lines): 77.74%
Growth Percent Mean ([55]; mean over all cell lines): 93.48%
Growth Percent Range ([55]; range over all cell lines): 123.73%
